Values quoted from earlier work, collected in patent publication US7396658B2, “Methods for screening HIF like ouabain-resistant Na+—K+-ATPase agents” (priority 1998, dated 2008).

Tests used:
[1] = target: T1, ouabain-resistant α1 isoform (obtained from rat kidney) (Rattus norvegicus, UniProt P06685); settings: α1 from rat kidney vs α2/α3 from rat brain axolemma; factor greater
T1 construct: the ouabain-resistant α1 isoform (obtained from rat kidney); host or cells: rat kidney tissue

[2] = target: ouabain-resistant Na^+—K^+-ATPase (Rattus norvegicus, UniProt P06685); settings: generally needed

C[C@@H]1O[C@@H](O[C@H]2C[C@@H](O)[C@]3(CO)[C@H]4[C@H](O)C[C@]5(C)[C@@H](C6=CC(=O)OC6)CC[C@]5(O)[C@@H]4CC[C@]3(O)C2)[C@H](O)[C@H](O)[C@H]1O [ouabain]
concentrations of ouabain required for inactivation of the ouabain-resistant α1 isoform, relative to that for inactivating the ouabain-sensitive α2/α3 isoforms [1]: 10^2-10^3 | concentration needed to inhibit ouabain-resistant Na+-K+-ATPases relative to that inhibiting ouabain sensitive Na+-K+-ATPase [2]: ≥ 100 fold
